# Assay results taken from patent publication EP2924045A1, “New agents for the treatment of cancer” (Medizinische Universität Wien, priority 2014, dated 2015).
# Columns and labels:
# [1] = Stability test in minimal essential medium; type: physicochemical
# [2] = system: EGFR; test: Western blot of EGFR inhibition in A431 and Calu3 cells under normoxia and hypoxia; type: cell-based; details: 4 h treatment, EGF 50 ng/ml for 15 min
# Protocol: (§1) Cells were plated in 96- or 6-well plates, respectively, in an HERA cell 150i (Thermo Scientific) with at 1% O2/5% CO2 level for indicated time points (72 h and 4 h for MTT assays and protein isolation, respectively) before analysis/harvesting.
# Proteins were isolated, resolved by SDS/PAGE, and transferred onto a polyvinylidenedifluoride membrane for Western blotting by routine methods. The following antibodies were used: EGFR, pEGFR (Tyr1068), ERK1/2 (p44/42 MAPK), and pERK (Thr202/Tyr204) (all polyclonal rabbit - Cell Signaling Technology, Beverly, MA, USA). β-actin was monoclonal mouse AC-15 (Sigma). All primary antibodies were used in 1:1000 dilutions. Additionally, horseradish peroxidase-labelled secondary antibodies from Santa Cruz Biotechnology were used at working dilutions of 1:10000.
# [3] = system: cell viability; test: MTT-based cell viability under normoxic and hypoxic conditions; details: 72 h treatment
# Protocol: (§2) Cells were plated (2x10^3 cells/well) in 96-well plates and allowed to recover for 24 h. Subsequently, the dissolved drugs were added. After 72 h exposure, the proportion of viable cells was determined by MTT assay following the manufacturer's recommendations (EZ4U, Biomedica, Vienna, Austria). Cytotoxicity was expressed as IC50 values calculated from full dose-response curves using Graph Pad Prism software.
# as §1
# As a first step, the anticancer activity of the novel Co(III) complex was tested in comparison to the metal-free ligand under normoxic and hypoxic conditions as shown in Figures 5 and 6A after 72 h treatment cell viability was measured using a MTT-based system. Values given are means ± standard deviation (SD) of one representative experiment performed in triplicates (Statistical analysis: t-test; ***p< 0.001 ^a: difference between L2 and 1a; ^b: difference between 1a normoxia and 1a hypoxia).
# [4] = system: A431 xenografts; test: A431 xenograft tumour growth in SCID mice; type: in vivo; details: 5 mg/kg i.v. or 25 mg/kg i.p.; efficacy comparable to erlotinib, especially upon intraperitoneal application
# Source text: (§3) Six- to 8-week-old female CB-17 scid/scid (SCID) mice were purchased from Harlan Laboratories (San Pietro al Natisone, Italy). The animals were kept in a pathogen-free environment and every procedure was done in a laminar airflow cabinet. The experiments were done according to the regulations of the Ethics Committee for the Care and Use of Laboratory Animals at the Medical University Vienna, The U.S. Public Health Service Policy on Human Care and Use of Laboratory Animals as well as the United Kingdom Coordinating Committee on Cancer Prevention Research's Guidelines for the Welfare of Animals in Experimental Neoplasia.
# (§4) This is of interest, as Calu3 xenografts are characterized by a rather specific tumor histology, where small tumour islands are surrounded by murine fibroblasts. Consequently, in these xenografts a larger tumor volume might be necessary for the development of hypoxic conditions and, thus, activation of 1b.
# [5] = system: Calu3 xenografts; test: Calu3 xenograft tumour growth in SCID mice; type: in vivo; details: when a tumour size of more than 200 mm^2 was reached
# Source text: as §3, §4
# [6] = system: Calu3; test: MTT cytotoxicity assay, Calu3 cells; type: cell-based; details: Homo sapiens, Calu-3; MTT assay after 72 h treatment; wild-type EGFR-overexpressing erlotinib-sensitive Calu3; read-out: Inhibition of Cell Growth (IC50 µM) Calu3
# Protocol: as §2
# (§5) As a first step MTT assays (after 72 h treatment) performed in wild-type EGFR-overexpressing erlotinib-sensitive A431 and Calu3 cells as well as in H1975 cells, which harbour a resistance-conferring EGFR mutation T790M (Table 1). […] Only in Calu3 cells activity in the low µM range was observed. In contrast, L2 containing the smallest chelating moiety had IC50 values in the low µM range in both erlotinib-responsive models. […] Table 1. Anticancer activity (IC50 values)
# [7] = system: H1975; test: MTT cytotoxicity assay, H1975 cells; type: cell-based; details: Homo sapiens, NCI-H1975; MTT assay after 72 h treatment; H1975 with resistance-conferring EGFR mutation T790M; read-out: Inhibition of Cell Growth (IC50 µM) H1975
# Protocol: The human NSCLC cell lines A431 (wt EGFR-overexpressing and erlotinib-sensitive) and H1975 (EGFR mutation at L858R as well as T790M and erlotinib-resistant) were purchased from American Type Culture Collection (ATCC), Rockville, MD, USA and cultivated unless otherwise indicated in humidified incubators (37°C, 21% O2, 5% CO2) in RPMI 1640 medium containing 10% fetal calf serum (PAA, Linz Austria). Cell cultures were periodically checked for Mycoplasma contamination.
# as §2, §5
# [8] = system: A431; test: MTT cytotoxicity assay, A431 cells; type: cell-based; details: Homo sapiens, A-431; MTT assay after 72 h treatment; wild-type EGFR-overexpressing erlotinib-sensitive A431; read-out: Inhibition of Cell Growth (IC50 µM) A431
# Protocol: Cell cultures were periodically checked for Mycoplasma contamination.
# Subsequently, the dissolved drugs were added. […] Cytotoxicity was expressed as IC50 values calculated from full dose-response curves using Graph Pad Prism software.
# [9] = system: EGFR signaling pathway; test: Western blot of EGFR signaling (pERK, pEGFR) in EGF-stimulated cells; type: cell-based; details: EGF-stimulated cells (HCC827 per Fig. 3), 4 h drug incubation, Western blotting
SMILES,stable in minimal essential medium [1],IC50 [6],IC50 [7],IC50 [8],other results
"CC(=O)C=C(C)[O-].CC(=O)C=C(C)[O-].F[P-](F)(F)(F)(F)F.NCCNc1ccc2ncnc(Nc3cccc(Br)c3)c2c1.[Co+3] [Compound 1a, Bis(2,4-pentanedionato) N^6-(2-aminoethyl)-N^4-(3-bromophenyl) quinazoline-4,6-diamine cobalt(III) hexafluorophosphate]",at least 24 h,,,,"EGFR inhibitory potential, hypoxia ([2]; hypoxia): potent activity similar to the metal-free ligand L2; EGFR inhibitory potential, normoxic conditions ([2]; normoxic conditions): distinctly reduced; anticancer activity, hypoxia ([3]; hypoxia (1% O2)): significantly increased; anticancer activity (cell viability), normoxic conditions ([3]; normoxic conditions, up to the highest tested concentration of 25 µM): widely inactive"
"CC(=O)C=C(C)[O-].CC(=O)C=C(C)[O-].NCCNc1ccc2ncnc(Nc3cccc(Br)c3)c2c1.[Cl-].[Co+3] [Compound 1b, Bis(2,4-pentanedionato) N^6-(2-aminoethyl)-N^4-(3-bromophenyl) quinazoline-4,6-diamine cobalt(III) chloride]",at least 24 h,,,,tumor growth of A431 xenografts [4]: potently inhibited tumor growth; tumor growth of Calu3 xenografts [5]: induced distinct tumor regression
"Brc1cccc(Nc2ncnc3ccc(N=Cc4ccccn4)cc23)c1 [Compound L1, N^4-(3-bromophenyl)-N^6-(pyridin-2-ylmethylene) quinazoline-4,6-diamine]",,3.5 ± 0.08 µM,20.4 ± 3.8 µM,> 25 µM,
"Cl.Cl.NCCNc1ccc2ncnc(Nc3cccc(Br)c3)c2c1 [Compound L2, N^6-(2-aminoethyl)-N^4-(3-bromophenyl)quinazoline-4,6-diamine dihydrochloride]",,2 ± 0.52 µM,15.5 ± 2.18 µM,9.15 ± 0.47 µM,inhibitory effects on ERK and EGFR phosphorylation levels [9]: most potent EGFR inhibitor with activity similar to erlotinib
"C#Cc1cccc(Nc2ncnc3cc(OCCOC)c(OCCOC)cc23)c1 [erlotinib, reference compound]",,0.74 ± 0.02 µM,> 25 µM,,
